In patent US10563263B2, “Genetic polymorphisms associated with statin response and cardiovascular diseases, methods of detection and uses thereof” (CELERA CORPORATION, priority 2010, dated 2020):

System: CHD (fatal CHD, definite non-fatal MI, or revascularization)
Assay: CARE: SNP by pravastatin treatment interaction, logistic regression (synergy index), CHD endpoint
Assay type: in vivo, human
Details: for OR (synergy index, SNP by pravastatin treatment interaction): CARE; for OR (synergy index), CARE, Prava vs Placebo: CHD endpoint
Description: CARE was a secondary prevention trial and WOSCOPS was a primary prevention trial.
The CHD endpoint was defined in the analyses herein of CARE as a composite endpoint of fatal CHD, definite non-fatal MI, or revascularization, and was defined in the analyses herein of WOSCOPS as a composite endpoint of death from CHD, nonfatal MI, or revascularization. In both the CARE and WOSCOPS analyses herein, the CVD endpoint was defined as a composite endpoint of CHD or stroke. […] Revascularization, which can include percutaneous transluminal coronary angioplasty (PTCA), stent placement, and coronary artery bypass graft (CABG), are medical interventions that indicate the presence of CHD.
Cohort and case-only study designs were used to identify SNPs associated with response to statin treatment.
For each SNP, a logistic regression model having treatment status as the dependent variable and SNP as the independent predictor variable was performed, with terms for age, sex and race included in the model as covariates. The anti-log of the regression coefficient corresponding to the SNP is an estimate of the synergy index (SI) (Davis et al., “Imputing gene-treatment interactions when the genotype distribution is unknown using case-only and putative placebo analyses-a new method for the Genetics of Hypertension Associated Treatment (GenHAT) study”, Statistics in Medicine 23: (2004), pages 2413-2427). The SI is a ratio of odds ratios: for example in the CARE and WOSCOPS studies, the SI represents the factor by which the odds-ratio of statin treatment, compared with placebo, among major homozygous individuals is multiplied by in order to obtain the odds-ratio of treatment vs. placebo among heterozygous individuals; and multiplied by a second time to obtain the odds-ratio of treatment vs. placebo in minor homozygous individuals. The case-only study design results in a valid estimate of the SI under the assumption that genotype and treatment are independent in the population. In a randomized clinical trial, genotype and treatment are independent by design. The p-value for the regression coefficient corresponding to the SNP results from a test of the null hypothesis that the regression coefficient is equal to zero (SI is equal to one) and thus small p-values indicate the SI is unlikely equal to one and that the effect of treatment likely differs by genotype.
A case-only study design was used to test whether the reduction of CHD events by statin therapy (for CARE and WOSCOPS studies) differed according to genotype (a treatment by SNP interaction) for each SNP evaluated in the study.

CC[C@H](C)C(=O)O[C@H]1C[C@H](O)C=C2C=C[C@H](C)[C@H](CC[C@@H](O)C[C@@H](O)CC(=O)O)[C@H]21 [Pravastatin, pravastatin]
OR (synergy index, SNP by pravastatin treatment interaction) (rs992695, Imputed, allele C, model ADD, NMISS 790, 95% CI 0.4976-0.8019): 0.6317
OR (synergy index, SNP by pravastatin treatment interaction) (rs992695, Imputed, allele C, model DOM, NMISS 790, 95% CI 0.4546-0.8068): 0.6056
OR (synergy index, SNP by pravastatin treatment interaction) (rs9881685, Imputed, allele A, model ADD, NMISS 799, 95% CI 0.3695-0.7488): 0.526
OR (synergy index, SNP by pravastatin treatment interaction) (rs9881685, Imputed, allele A, model DOM, NMISS 799, 95% CI 0.3327-0.7106): 0.4862
OR (synergy index, SNP by pravastatin treatment interaction) (rs9936999, Imputed, allele G, model DOM, NMISS 485, 95% CI 1.294-2.746): 1.885
OR (synergy index), CARE, Prava vs Placebo (SNP rs198462 (A1 G, A2 A), rec model, Caseonly): 1.57
OR (synergy index), CARE, Prava vs Placebo (SNP rs198476 (A1 G, A2 A), rec model, cohort): 1.58
OR (synergy index), CARE, Prava vs Placebo (SNP rs471579 (A1 A, A2 C), add model, Caseonly): 1.26
OR (synergy index), CARE, Prava vs Placebo (SNP rs1324012 (A1 A, A2 G), add model, Caseonly): 0.78
OR (synergy index), CARE, Prava vs Placebo (SNP rs1917527 (A1 A, A2 C), rec model, Caseonly): 0.34
OR (synergy index), CARE, Prava vs Placebo (SNP rs2768652 (A1 C, A2 T), add model, cohort): 1.22
OR (synergy index), CARE, Prava vs Placebo (SNP rs6563805 (A1 A, A2 G), add model, cohort): 0.76
OR (synergy index), CARE, Prava vs Placebo (SNP rs7873371 (A1 A, A2 G), add model, Caseonly): 1.25
OR (synergy index), CARE, Prava vs Placebo (SNP rs12553453 (A1 C, A2 A), add model, cohort): 1.22
OR (synergy index), CARE, Prava vs Placebo (SNP rs12635482 (A1 C, A2 A), rec model, cohort): 0.54
CARE OR (rs1948 allele A vs G (ref), Source CaseOnly): 1.52
CARE OR (rs151806 allele G vs A (ref), Source cohort): 0.60
CARE OR (rs205279 allele A vs G (ref), Source Caseonly): 1.94
CARE OR (rs238272 allele A vs G (ref), Source CaseOnly): 1.44
CARE OR (rs312929 allele G vs A (ref), Source cohort): 0.72
CARE OR (rs316720 allele G vs A (ref), Source cohort): 0.67
CARE OR (rs331555 allele A vs C (ref), Source cohort): 0.72
CARE OR (rs354342 allele A vs G (ref), Source Caseonly): 0.70
CARE OR (rs453625, allele A1 A (non-ref), A2 G (ref), source cohort, endpoint/model not given): 0.66
CARE OR (rs610118 allele G vs A (ref), Source cohort): 0.43
CARE OR (rs669684 allele G vs A (ref), Source cohort): 0.69
CARE OR (rs842796 allele A vs G (ref), Source cohort): 1.72
CARE OR (rs886469 allele G vs A (ref), Source cohort): 0.70
CARE OR (rs969356 allele G vs A (ref), Source cohort): 0.69
CARE OR (rs1035618 allele A vs C (ref), Source Caseonly): 1.38
CARE OR (rs1076733, allele A1 A (non-ref), A2 G (ref), source cohort, endpoint/model not given): 0.70
CARE OR (rs1182878, allele A1 A (non-ref), A2 G (ref), source cohort, endpoint/model not given): 0.79
CARE OR (rs1343563 allele C vs A (ref), Source cohort): 0.61
CARE OR (rs1349282 allele A vs G (ref), Source cohort): 0.55
CARE OR (rs1382787 allele G vs A (ref), Source cohort): 1.37
CARE OR (rs1474396, allele A1 A (non-ref), A2 C (ref), source cohort, endpoint/model not given): 1.35
CARE OR (rs1615197 allele G vs A (ref), Source CaseOnly): 1.54
CARE OR (rs1884897 allele A vs G (ref), Source cohort): 2.24
CARE OR (rs2008165 allele G vs A (ref), Source cohort): 0.57
CARE OR (rs2023650 allele A vs G (ref), Source cohort): 0.76
CARE OR (rs2060411 allele A vs G (ref), Source cohort): 1.37
CARE OR (rs2104506 allele A vs C (ref), Source cohort): 0.75
CARE OR (rs2129571, allele A1 A (non-ref), A2 G (ref), source cohort, endpoint/model not given): 0.62
CARE OR (rs2145540 allele A vs G (ref), Source cohort): 0.51
CARE OR (rs2268650 allele A vs G (ref), Source cohort): 0.64
CARE OR (rs2273816 allele A vs G (ref), Source CaseOnly): 1.56
CARE OR (rs2290193, allele A1 C (non-ref), A2 A (ref), source cohort, endpoint/model not given): 0.53
CARE OR (rs2376764 allele A vs G (ref), Source Caseonly): 0.61
CARE OR (rs2418412 allele G vs A (ref), Source cohort): 2.20
CARE OR (rs2483641, allele A1 A (non-ref), A2 G (ref), source cohort, endpoint/model not given): 0.65
CARE OR (rs2534752 allele G vs A (ref), Source cohort): 1.60
CARE OR (rs2626130 allele G vs A (ref), Source cohort): 1.29
CARE OR (rs2695026 allele A vs G (ref), Source Caseonly): 0.70
CARE OR (rs2793086 allele C vs A (ref), Source cohort): 0.61
CARE OR (rs2941528 allele A vs G (ref), Source CaseOnly): 0.72
CARE OR (rs3000490 allele G vs A (ref), Source cohort): 1.45
CARE OR (rs3213616 allele A vs G (ref), Source cohort): 0.62
CARE OR (rs3732788 allele G vs A (ref), Source cohort): 0.56
CARE OR (rs3798544 allele A vs G (ref), Source cohort): 1.47
CARE OR (rs3998860 allele A vs G (ref), Source cohort): 0.58
CARE OR (rs4289236 allele A vs G (ref), Source cohort): 1.37
CARE OR (rs4611134 allele A vs G (ref), Source cohort): 1.54
CARE OR (rs4643388 allele G vs A (ref), Source cohort): 1.32
CARE OR (rs4682522 allele C vs A (ref), Source cohort): 0.59
CARE OR (rs4830819 allele G vs A (ref), Source cohort): 0.57
CARE OR (rs4869033 allele G vs A (ref), Source cohort): 0.31
CARE OR (rs4924215 allele A vs G (ref), Source cohort): 1.77
CARE OR (rs4986146 allele A vs G (ref), Source cohort): 0.62
CARE OR (rs4993917 allele A vs C (ref), Source cohort): 0.57
CARE OR (rs5017584 allele A vs G (ref), Source cohort): 1.61
CARE OR (rs6075209 allele A vs G (ref), Source cohort): 0.63
CARE OR (rs6080603 allele A vs C (ref), Source cohort): 0.59
CARE OR (rs6491586 allele G vs A (ref), Source cohort): 1.59
CARE OR (rs6505669 allele G vs A (ref), Source cohort): 1.70
CARE OR (rs6911817, allele A1 A (non-ref), A2 G (ref), source cohort, endpoint/model not given): 2.15
CARE OR (rs7094941, allele A1 G (non-ref), A2 A (ref), source cohort, endpoint/model not given): 0.78
CARE OR (rs7179134 allele A vs G (ref), Source cohort): 3.54
CARE OR (rs7193741 allele A vs C (ref), Source cohort): 2.16
CARE OR (rs7327364 allele A vs G (ref), Source cohort): 0.69
CARE OR (rs7497613, allele A1 A (non-ref), A2 G (ref), source cohort, endpoint/model not given): 0.65
CARE OR (rs7616936, allele A1 C (non-ref), A2 A (ref), source cohort, endpoint/model not given): 1.47
CARE OR (rs7705993 allele G vs A (ref), Source cohort): 1.50
CARE OR (rs7767024, allele A1 A (non-ref), A2 G (ref), source cohort, endpoint/model not given): 1.32
CARE OR (rs7910196, allele A1 G (non-ref), A2 A (ref), source cohort, endpoint/model not given): 1.36
CARE OR (rs8051893 allele A vs G (ref), Source cohort): 0.69
CARE OR (rs8109631 allele A vs G (ref), Source cohort): 1.53
CARE OR (rs9375683 allele G vs A (ref), Source cohort): 1.63
CARE OR (rs9436636 allele A vs G (ref), Source cohort): 1.34
CARE OR (rs9446187 allele A vs G (ref), Source cohort): 1.92
CARE OR (rs9658127, allele A1 A (non-ref), A2 G (ref), source cohort, endpoint/model not given): 2.03
CARE OR (rs10088505 allele A vs G (ref), Source Caseonly): 1.52
CARE OR (rs10088524, allele A1 G (non-ref), A2 A (ref), source cohort, endpoint/model not given): 1.46
CARE OR (rs10103297, allele A1 A (non-ref), A2 G (ref), source cohort, endpoint/model not given): 1.84
CARE OR (rs10120126 allele G vs A (ref), Source CaseOnly): 0.53
CARE OR (rs10189905 allele C vs A (ref), Source cohort): 0.50
CARE OR (rs10500736 allele G vs A (ref), Source cohort): 0.61
CARE OR (rs10517923 allele A vs G (ref), Source cohort): 1.62
CARE OR (rs10814422 allele G vs A (ref), Source cohort): 0.64
CARE OR (rs10849442 allele A vs G (ref), Source Caseonly): 0.56
CARE OR (rs10875941, allele A1 G (non-ref), A2 A (ref), source cohort, endpoint/model not given): 0.73
CARE OR (rs10973013 allele A vs G (ref), Source cohort): 0.59
CARE OR (rs11076320 allele C vs A (ref), Source cohort): 0.64
CARE OR (rs11082492 allele A vs C (ref), Source cohort): 1.46
CARE OR (rs11925875 allele A vs G (ref), Source cohort): 0.72
CARE OR (rs12556591 allele G vs A (ref), Source cohort): 0.57
CARE OR (rs12657484, allele A1 G (non-ref), A2 A (ref), source cohort, endpoint/model not given): 1.36
CARE OR (rs13279522 allele G vs A (ref), Source cohort): 0.62
CARE OR (rs13314266 allele G vs A (ref), Source cohort): 0.60
CARE OR (rs13318232 allele G vs A (ref), Source cohort): 0.60
CARE OR (rs16861467, allele A1 G (non-ref), A2 A (ref), source cohort, endpoint/model not given): 0.60
CARE OR (rs17076974 allele A vs G (ref), Source cohort): 1.46
CARE OR (rs17546598 allele A vs G (ref), Source cohort): 1.57
CARE OR (rs17706237 allele G vs A (ref), Source CaseOnly): 1.80
CARE OR (rs17716275, allele A1 A (non-ref), A2 G (ref), source cohort, endpoint/model not given): 1.91
CARE OR (rs72746987 allele A vs G (ref), Source cohort): 0.43
